The structures appear in SMILES notation.

For 1 compound, EC50 results are on record in publication PMC7659177 (ACS omega, 2020).

In the test the target is IP3R1 (HEK-IP3R1 cells) (Rattus norvegicus, UniProt P29994). As to the kind of experiment: Ca2+ release from stores of permeabilized cells, Mag-fluo […]. In kind it is cell-based.
Chain of IP3R1 (HEK-IP3R1 cells) (P29994 whole entry): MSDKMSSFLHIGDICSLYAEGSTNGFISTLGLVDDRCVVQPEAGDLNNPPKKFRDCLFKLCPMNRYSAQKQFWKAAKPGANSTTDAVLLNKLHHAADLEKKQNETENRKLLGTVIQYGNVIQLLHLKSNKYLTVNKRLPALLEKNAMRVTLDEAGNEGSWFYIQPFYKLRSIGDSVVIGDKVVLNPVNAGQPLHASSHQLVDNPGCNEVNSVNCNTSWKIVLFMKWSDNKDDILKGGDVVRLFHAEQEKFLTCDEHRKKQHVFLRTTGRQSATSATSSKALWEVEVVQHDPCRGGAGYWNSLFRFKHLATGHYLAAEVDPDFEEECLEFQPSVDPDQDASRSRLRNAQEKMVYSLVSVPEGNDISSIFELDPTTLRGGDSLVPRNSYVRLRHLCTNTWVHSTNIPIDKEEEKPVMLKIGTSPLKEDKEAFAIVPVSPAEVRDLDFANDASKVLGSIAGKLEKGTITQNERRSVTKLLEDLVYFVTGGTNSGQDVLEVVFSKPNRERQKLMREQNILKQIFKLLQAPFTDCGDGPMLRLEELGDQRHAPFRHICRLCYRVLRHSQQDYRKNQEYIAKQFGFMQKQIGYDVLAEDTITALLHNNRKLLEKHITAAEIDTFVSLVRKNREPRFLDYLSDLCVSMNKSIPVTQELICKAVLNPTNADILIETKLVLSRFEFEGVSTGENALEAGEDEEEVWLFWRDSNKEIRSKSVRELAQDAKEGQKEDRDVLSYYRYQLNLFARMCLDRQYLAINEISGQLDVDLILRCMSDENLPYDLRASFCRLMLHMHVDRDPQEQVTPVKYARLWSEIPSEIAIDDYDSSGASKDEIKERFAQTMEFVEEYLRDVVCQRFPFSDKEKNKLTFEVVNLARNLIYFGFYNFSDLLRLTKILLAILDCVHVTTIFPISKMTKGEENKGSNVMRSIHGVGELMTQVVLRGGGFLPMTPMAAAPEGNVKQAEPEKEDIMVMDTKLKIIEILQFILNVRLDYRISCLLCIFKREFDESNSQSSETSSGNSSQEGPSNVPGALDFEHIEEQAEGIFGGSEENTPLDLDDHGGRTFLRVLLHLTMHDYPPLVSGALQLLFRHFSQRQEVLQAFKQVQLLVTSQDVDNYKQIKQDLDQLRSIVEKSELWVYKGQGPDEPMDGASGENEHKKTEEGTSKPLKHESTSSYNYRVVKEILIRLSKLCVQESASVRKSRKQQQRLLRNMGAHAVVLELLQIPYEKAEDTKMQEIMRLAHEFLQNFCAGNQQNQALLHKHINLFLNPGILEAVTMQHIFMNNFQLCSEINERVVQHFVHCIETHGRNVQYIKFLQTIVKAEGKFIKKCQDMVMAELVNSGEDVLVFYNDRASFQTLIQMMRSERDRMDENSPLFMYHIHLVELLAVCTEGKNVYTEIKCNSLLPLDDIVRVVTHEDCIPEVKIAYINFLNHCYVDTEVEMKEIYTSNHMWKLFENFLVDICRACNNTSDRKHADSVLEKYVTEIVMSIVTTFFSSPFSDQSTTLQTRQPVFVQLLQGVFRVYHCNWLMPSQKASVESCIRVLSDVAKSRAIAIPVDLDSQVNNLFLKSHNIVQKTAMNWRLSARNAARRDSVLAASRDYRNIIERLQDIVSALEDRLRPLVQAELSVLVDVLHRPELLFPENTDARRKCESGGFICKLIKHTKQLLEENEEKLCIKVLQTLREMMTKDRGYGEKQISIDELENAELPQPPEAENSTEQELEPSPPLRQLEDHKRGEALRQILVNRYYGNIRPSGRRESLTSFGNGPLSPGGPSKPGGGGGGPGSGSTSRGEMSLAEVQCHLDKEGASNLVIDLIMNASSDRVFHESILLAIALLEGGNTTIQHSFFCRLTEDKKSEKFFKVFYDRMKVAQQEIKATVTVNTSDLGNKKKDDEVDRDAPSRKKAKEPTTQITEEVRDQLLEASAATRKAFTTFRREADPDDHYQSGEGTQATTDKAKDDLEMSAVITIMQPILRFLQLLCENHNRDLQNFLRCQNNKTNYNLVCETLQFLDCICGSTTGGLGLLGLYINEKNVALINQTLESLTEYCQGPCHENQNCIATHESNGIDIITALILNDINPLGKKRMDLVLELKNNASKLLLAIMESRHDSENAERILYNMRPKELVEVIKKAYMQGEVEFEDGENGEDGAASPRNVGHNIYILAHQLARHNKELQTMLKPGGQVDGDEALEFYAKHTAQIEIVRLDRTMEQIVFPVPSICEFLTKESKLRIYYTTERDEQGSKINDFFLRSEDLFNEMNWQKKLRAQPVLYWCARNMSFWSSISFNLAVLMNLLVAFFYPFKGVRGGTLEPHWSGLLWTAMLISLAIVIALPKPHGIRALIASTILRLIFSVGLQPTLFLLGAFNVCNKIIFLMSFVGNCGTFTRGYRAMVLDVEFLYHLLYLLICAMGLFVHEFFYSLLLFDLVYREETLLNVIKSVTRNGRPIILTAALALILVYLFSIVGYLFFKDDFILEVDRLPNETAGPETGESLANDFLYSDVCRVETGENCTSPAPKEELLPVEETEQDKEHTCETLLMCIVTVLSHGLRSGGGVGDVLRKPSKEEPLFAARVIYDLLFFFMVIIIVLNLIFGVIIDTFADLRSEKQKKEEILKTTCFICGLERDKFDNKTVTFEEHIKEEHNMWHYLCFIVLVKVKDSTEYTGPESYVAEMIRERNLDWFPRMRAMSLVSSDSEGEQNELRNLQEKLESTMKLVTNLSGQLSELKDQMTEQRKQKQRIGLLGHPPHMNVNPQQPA

Usually EC50 stands for the concentration needed to bring the measured effect to its halfway point. Read a low EC50 as a more potent agent. The compound `Nc1ncnc2c1ncn2[C@@H]1O[C@H](CO)[C@@H](O[C@H]2[C@H](O)[C@H](O)[C@@H](OP(=O)(O)O)[C@H](OP(=O)(O)O)[C@H]2O)[C@H]1OP(=O)(O)O` [compound 5, 3' -O-(1″ -D-chiro-Inosityl)adenosine 2’, 3″, 4″ -trisphosphate] registered an EC50 of 0.022 µM.
